First: CCCc1cc(=O)oc2c(C=O)c(O)cc(O)c12
Second: CCOc1cc(-n2c(=O)cc(C(F)(F)F)n(C)c2=O)c(F)cc1Br
The melting point of the first is higher: 236 to 237 °C for the first, 128 °C for the second.

Compared with O=C(Nc1ccc(I)cc1)OCc1ccccc1, N#Cc1ccc(C=NNS(=O)(=O)c2ccccc2)cc1 is higher in melting point: 132 to 134 °C for the first, 209 to 213 °C for the second.

Compared with CCN1c2ncc(Cc3cccc(O)c3)cc2C(=O)N(C)c2ccc(Cl)nc21, COc1ccc2c(c1)c(CC(=O)O)c(C)n2-c1ccnc2cc(Cl)ccc12 is higher in melting point: 219 to 220 °C for the first, 248 to 250 °C for the second.

Compared with CC(CC(C#N)(c1ccccc1)c1ccccn1)N1CCN(C)CC1 (stereo not given), Oc1ccccc1N1CCN(Cc2nc3ccccc3[nH]2)CC1 is higher in melting point: 89 to 90 °C for the first, 208 to 216 °C for the second.

Compared with CC(C)C[C@H](NC(=O)N1CCOCC1)C(=O)N[C@@H](CCc1ccccc1)C(=O)c1oc(-c2ccccc2)nc1-c1ccccc1, O=C(Nc1ccccc1Sc1ccccc1)N[C@@H](Cc1ccc(NC(=O)c2c(Cl)cccc2Cl)cc1)C(=O)O is higher in melting point: 83 to 85 °C for the first, 220 °C for the second.

First: CCCCOc1ccc(S(=O)(=O)C2(C(=O)O)CCN(Cc3ccc(C)cc3)CC2)cc1
Second: CCCCCC(=O)c1ccc(OCc2ccc3ccccc3n2)cc1
The melting point of the first is higher: 137 °C for the first, 78 to 80 °C for the second.

Compared with CCOC(=O)CNc1cc(F)ccc1[N+](=O)[O-], CCCCOC(=O)COc1cc(F)c(-c2nn(C)c(C(F)(F)F)c2Cl)cc1[N+](=O)[O-] is lower in melting point: 194 to 195 °C for the first, 65 °C for the second.

Compared with O=C(c1ccco1)N1CCN(c2cc(-c3ccc(F)cc3)c3c(n2)CCC3)CC1, COc1cc(N2CCCC2)ncc1NC(=O)c1cc2cc(F)ccc2n1Cc1cccc(F)c1 is higher in melting point: 165 to 166 °C for the first, 196 to 198 °C for the second.

First: Cc1cc(=O)c(C(=O)Nc2ccccc2Cl)c(C)o1
Second: O=C(NC(=O)c1c(Cl)cccc1Cl)Nc1ccc(Cl)cn1
The melting point of the first is lower: 206 to 207 °C for the first, 220 to 222 °C for the second.

First: CC1(c2ccccc2)CC(=O)N(c2ccncc2)C1=O (stereo not given)
Second: O=C1CN(C(=O)c2ccccc2)c2cc(F)ccc2N1
The melting point of the first is lower: 90 to 92 °C for the first, 226 to 227 °C for the second.

First: COc1ccc(COc2ccc(C=C(C=O)C(C=O)=Cc3ccc(OCc4ccc(OC)cc4)cc3)cc2)cc1
Second: OCc1cn(Cc2ccc(OCc3ccccc3)cc2)nc1-c1ccc(F)cc1
The melting point of the first is higher: 218 to 220 °C for the first, 112 to 113 °C for the second.

Compared with O=C(c1cc([N+](=O)[O-])ccc1Cl)c1sccc1Cl, Cc1ccc(N(C(=O)CCl)c2c(F)cccc2Cl)cc1 is lower in melting point: 114 to 116 °C for the first, 80 to 83 °C for the second.

First: CCCn1c(=O)c2[nH]c(C3CCCO3)nc2n(CCC)c1=O (stereo not given)
Second: CCCCOC(=O)CSc1ncnc2c(O)n(C)nc12
The melting point of the first is lower: 155 to 158 °C for the first, 172 °C for the second.

First: C=CCOc1ccccc1S(N)(=O)=O
Second: C=CCN1C(=O)C2CC2(c2ccc(NC(C)=O)cc2)C1=O (stereo not given)
The melting point of the first is lower: 104 to 105 °C for the first, 113 to 116 °C for the second.

First: Cc1cc(C(N)=O)c(N)s1
Second: Cc1cc(O)cc(C)c1N
The melting point of the first is lower: 140 to 141 °C for the first, 190 to 191 °C for the second.

First: CCOC(=O)c1oc2cc(-c3ccc(CO)cc3)ccc2c1C
Second: Cc1ccc(C(=O)N(C)Cc2cccc(-c3ccc(CC4SC(=O)NC4=O)cc3)c2)cc1 (stereo not given)
The melting point of the first is lower: 135 to 136 °C for the first, 198 °C for the second.

CCN1CCN(c2nc(-c3ccc(OCCO)cc3)cc3ccsc23)CC1 and COc1cc(CCN2CCN(c3nsc4ccccc34)CC2)c([N+](=O)[O-])cc1OC cannot be ordered by melting point: 135 to 136 °C for the first, 135 °C for the second.

First: CC(C)CC1(C(CCSc2cccs2)C(=O)NO)CCN(CCc2ccccc2)C1=O (stereo not given)
Second: CCOC(=O)[C@H]1CC[C@@H](c2ccccc2)N1C(=O)CNC(=O)Nc1cccc(C)c1 (racemic)
The melting point of the first is lower: 109 to 110 °C for the first, 115 °C for the second.

First: O=C1O[C@@H](COc2cnsn2)CN1c1ccc(C2=CCOCC2)c(F)c1
Second: C[C@@H](Oc1cc(-c2cnn(C3CCNCC3)c2)cnc1N)c1c(Cl)ccc(F)c1Cl
The melting point of the first is lower: 146 to 148 °C for the first, 194 °C for the second.

First: COc1cc2ccccc2c(C2NCCc3ccccc32)c1O (stereo not given)
Second: COc1cc2cc3c(ccc4cc(Cl)ccc43)nc2cc1OC
The melting point of the first is lower: 154 to 156 °C for the first, 241 to 243 °C for the second.

Compared with CN(N)C(=O)N=C1CCC(CC2CCC(=NC(=O)N(C)N)CC2)CC1 (stereo not given), CC(C)(O)C(=O)N[C@H]1CC[C@H](CCN2CCC(c3cccc4c3CCO4)CC2)CC1 is lower in melting point: 187 to 193 °C for the first, 163 °C for the second.

First: COc1cc(OC)c2c(c1OC)CCC(C(=O)Cc1cccc(F)c1)C2C#N (stereo not given)
Second: COc1cc(C2=C(c3cn(CCCNC(=O)C(N)CC(C)C)c4ccccc34)C(=O)NC2=O)cc(OC)c1OC (stereo not given)
The melting point of the first is lower: 58 to 62 °C for the first, 172 to 173 °C for the second.

Compared with CC(C)(C)OC(=O)C(C)(C)Oc1ccc2c(c1)Nc1ccccc1S2, CC(C)(C)c1cc(CCc2ccccc2NC(=O)NC(c2ccccc2)c2ccccc2)cc(C(C)(C)C)c1O is higher in melting point: 138 to 140 °C for the first, 187 °C for the second.

Compared with CC(=O)NCCNc1cccc(-c2cc(-c3ccc(F)cc3O)nc(NC(=O)c3ccco3)c2C#N)c1, O=C(Nc1cccc(C(=O)Nc2ccccc2)c1)Nc1nnc(-c2cc(Cl)cc(Cl)c2O)s1 is higher in melting point: 158 to 160 °C for the first, 298 °C for the second.

Compared with COP(=O)(CC(O)c1c(C(C)C)nn(-c2ccccc2)c1-c1ccc(F)cc1)OC (stereo not given), CCn1nc(OCC(=O)C(C)(C)C)c(-c2ccc(F)cc2)c1-c1ccc(S(C)(=O)=O)cc1 is higher in melting point: 126 to 128 °C for the first, 144 to 146 °C for the second.

Compared with O=C(O)Cc1ccc(-n2cc(Br)cn2)cc1, NC(=NO)c1ccc(-c2ccc(O)cc2)o1 is lower in melting point: 187 °C for the first, 157 to 158 °C for the second.

First: CCc1nn(-c2ccc(F)cc2)c2c1C(C)N(C)C2=O (stereo not given)
Second: Cn1cc(-c2cccc(F)c2)c(=O)c(-c2cccc(Cl)c2)c1
The melting point of the first is lower: 65 °C for the first, 145 to 146 °C for the second.

First: N#Cc1nn(-c2c(Cl)cc(C(F)(F)F)cc2Cl)cc1C(=O)C(F)(F)C(F)(F)C(F)(F)F
Second: CCC(C)(C)NC(Nc1cc(C(F)(F)F)cc(C(F)(F)F)c1)=C(C#N)S(=O)(=O)c1ccc(Cl)cc1
The melting point of the first is lower: 102 to 103 °C for the first, 205 to 207 °C for the second.

First: C[C@@H](N1CC(=O)N(c2ccc(OCC(F)(F)C(F)F)cc2)CC1=O)[C@@]1(c2ccc(F)cc2F)CO1
Second: CCC(CC)n1ncn(-c2ccc(N3CCN(c4ccc5c(=O)n([C@H](C)[C@](O)(Cn6cncn6)c6ccc(F)cc6F)cnc5c4)CC3)cc2)c1=O
The melting point of the first is lower: 155 to 156 °C for the first, 208 to 210 °C for the second.

First: COc1ccc(Cl)c(S(=O)(=O)NC(=O)c2cn3cc(C(F)(F)F)ncc3n2)c1
Second: Cc1ccc(S(=O)(=O)N2CCN(C(=O)c3ccc(Nc4ccnc5cc(C(F)(F)F)ccc45)cc3)CC2)cc1
The melting point of the first is higher: 236 to 237 °C for the first, 215 to 217 °C for the second.

First: Cc1ccncc1CN1CCC(=C2c3ccc(Cl)cc3CCc3cccnc32)CC1
Second: O=C1c2c(-c3ccccc3)ccnc2OCCN1Cc1cc(C(F)(F)F)cc(C(F)(F)F)c1
The melting point of the first is lower: 95.5 to 101 °C for the first, 200 to 201 °C for the second.

Compared with CCOC(=O)Cn1c2c(c3c(Cl)ccc(Cl)c31)CCN(C(=O)OC(C)(C)C)CC2, CC(C)(C)OC(=O)N1CCC2(CC1)CC(=O)N(OCCO)C2=O is lower in melting point: 118 to 120 °C for the first, 97 to 98 °C for the second.

First: CC(=O)NCc1ccc(-c2csc(NC(C)=O)n2)s1
Second: O=C(O)C=Cc1ccc(-c2ccc(-c3cccs3)s2)s1
The melting point of the first is higher: 251 °C for the first, 220 to 225 °C for the second.

Compared with Cc1cc(C)c(NC(=O)NC2CC2c2ccc(-c3ncn(-c4ccc(OC(F)(F)F)cc4)n3)cc2)c(C)c1 (stereo not given), Nc1ncccc1CNC(=O)C1Cc2ccccc2N1S(=O)(=O)c1ccc(-c2cccc(C(F)(F)F)c2)cc1 (stereo not given) is lower in melting point: 254 to 256 °C for the first, 94 °C for the second.

Compared with O[C@H]1c2cc(Oc3ccc4ccccc4n3)ccc2OC[C@H]1Oc1cccnc1 (relative stereo), O=C1OC2(CC(c3cccc(Oc4ccccc4)c3)=NO2)c2ccccc21 (stereo not given) is higher in melting point: 112 to 114 °C for the first, 114 to 116 °C for the second.

Compared with CCN(CC)CCOc1ccc(NC(=O)CC(=O)c2ccc(-c3ccccc3)cc2)cc1Cl, CCC(OCCc1c2c3c(c(OCc4ccc(-c5ccccc5)cn4)ccc3n1Cc1ccc(Cl)cc1)SC(C)C2)C(=O)O (stereo not given) is higher in melting point: 148 to 151 °C for the first, 159 to 162 °C for the second.

Compared with Cn1c2ncccc2c(=O)n2nccc12, Cc1cc(N)nc(-c2ccncc2)n1 is lower in melting point: 249 °C for the first, 192 to 194 °C for the second.

First: Clc1nc2ccccc2n2cnc(-c3nc(C4CC4)no3)c12
Second: CCOCc1nc2c(N)nc3ccc(O)cc3c2n1CCCCN(C(N)=O)c1ccccc1
The melting point of the first is lower: 166 to 168 °C for the first, 218 to 221 °C for the second.

First: CC(C)(C)OC(=O)Nc1cnc(F)cc1C(=O)CC#N
Second: COC(=O)c1cc(N)cc(CNC(=O)OC(C)(C)C)c1
The melting point of the first is higher: 106 to 115 °C for the first, 57 to 65 °C for the second.

First: CC(CO)Nc1c(F)cc2c(=O)c(C(=O)O)cn(-c3cc(N)c(F)cc3F)c2c1Cl (stereo not given)
Second: C=C(c1ccc(C(C)C)cc1)c1c(C)c(NC(=O)CC(C)(C)C)c(C)c2c1OCC2
The melting point of the first is lower: 153 to 158 °C for the first, 188 to 189 °C for the second.

First: Oc1cccc(F)c1OC(COCc1ccccc1)C(Cl)COCc1ccccc1 (stereo not given)
Second: O=C1c2c(-c3ccccc3)c3ccccc3c(=O)n2CCN1Cc1cc(C(F)(F)F)cc(C(F)(F)F)c1
The melting point of the first is lower: 77 to 79 °C for the first, 194 to 196 °C for the second.

Compared with CC(C)c1cccc(C(C)C)c1NC(=O)C1c2ccccc2COc2ccc([N+](=O)[O-])cc21 (stereo not given), Cc1cccc2ncc(C(=O)NC(C)(C)C)c(=O)n12 is lower in melting point: 186 to 188 °C for the first, 164 to 166 °C for the second.

First: Clc1cc2nc(Cl)c(N3CCNCC3)nc2cc1Cl
Second: Cc1cc(CCCCCOc2c(Cl)cc(-c3ccco3)cc2Cl)on1
The melting point of the first is higher: greater than 300 °C for the first, 29 to 30 °C for the second.

Compared with O=Cc1cccn2c(Br)cnc12, CC(C(=S)c1cccc(NC=O)n1)S(C)=O (stereo not given) is higher in melting point: 104 to 106 °C for the first, 130 to 132 °C for the second.

Compared with O=C(NCCC1CC2CCC1C2)n1cc(F)c(=O)[nH]c1=O (stereo not given), CC(C)NC(=O)CC(O)(Cn1cncn1)c1ccc(Cl)cc1Cl (stereo not given) is lower in melting point: 128 to 130 °C for the first, 105 to 107 °C for the second.

Compared with COc1nc(OC)c(C(C)C)c(C(C#N)c2cc(C)cc(Br)c2)n1 (stereo not given), COc1cc(Cl)cnc1OCC#Cc1cc(Cl)ccn1 is higher in melting point: 123 to 124 °C for the first, 129 °C for the second.

Compared with C[Si](C)(C)C#Cc1cnn2c(C(F)(F)F)cc(-c3ccc(Cl)cc3)nc12, CCOC(=O)COc1ccc(C(=O)[C@H](Cc2ccc(OC)cc2)NC(=O)OC(C)(C)C)cc1 is lower in melting point: 198 °C for the first, 95 to 97 °C for the second.

CC(=O)OC1CC(C)(C)N(OC(=NC2CCCCC2)N(C(C)=O)C2CCCCC2)C(C)(C)C1 gave a melting point of 125 to 130 °C.

Source: a melting point compilation (Tetko et al.; mined from patent text by program, amines drawn as free bases though some values may be those of a salt)
